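Test compounds were applied to cells in 96-well plates for 48 hours at 5 doses. The concentration for full growth arrest is given as TGI.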
Experiments:
Assay in all cases: growth of human tumour cells (NCI), 48 h
NCI-H460 lung = tested on: NCI-H460 lung
MALME-3M melanoma = tested on: MALME-3M melanoma
CCRF-CEM leukemia = tested on: CCRF-CEM leukemia
A549 NSCLC = tested on: A549 NSCLC
HCT-15 colon = tested on: HCT-15 colon
SF-539 CNS = tested on: SF-539 CNS
OVCAR-8 ovarian = tested on: OVCAR-8 ovarian
SF-295 CNS = tested on: SF-295 CNS
NCI-H522 lung = tested on: NCI-H522 lung
OVCAR-3 ovarian = tested on: OVCAR-3 ovarian
IGROV1 ovarian = tested on: IGROV1 ovarian
SNB-75 CNS = tested on: SNB-75 CNS
SK-MEL-28 melanoma = tested on: SK-MEL-28 melanoma
OVCAR-5 ovarian = tested on: OVCAR-5 ovarian
LOX IMVI melanoma = tested on: LOX IMVI melanoma
DLD-1 colon = tested on: DLD-1 colon
LXFL 529 NSCLC = tested on: LXFL 529 NSCLC
XF 498 CNS = tested on: XF 498 CNS
EKVX NSCLC = tested on: EKVX NSCLC
DMS 114 small cell lung = tested on: DMS 114 small cell lung
KM12 colon = tested on: KM12 colon
HL-60(TB) leukemia = tested on: HL-60(TB) leukemia
UO-31 renal = tested on: UO-31 renal
SN12C renal = tested on: SN12C renal
COLO 205 colon = tested on: COLO 205 colon
U251 CNS = tested on: U251 CNS
NCI-H226 lung = tested on: NCI-H226 lung
786-0 renal = tested on: 786-0 renal
M14 melanoma = tested on: M14 melanoma
TK-10 renal = tested on: TK-10 renal
OVCAR-4 ovarian = tested on: OVCAR-4 ovarian
RPMI-8226 leukemia = tested on: RPMI-8226 leukemia
SW-620 colon = tested on: SW-620 colon
ACHN renal = tested on: ACHN renal
MOLT-4 leukemia = tested on: MOLT-4 leukemia
A498 renal = tested on: A498 renal
SF-268 CNS = tested on: SF-268 CNS
SNB-19 CNS = tested on: SNB-19 CNS
M19-MEL melanoma = tested on: M19-MEL melanoma
KM20L2 colon = tested on: KM20L2 colon
HOP-62 NSCLC = tested on: HOP-62 NSCLC
SK-MEL-5 melanoma = tested on: SK-MEL-5 melanoma
HOP-18 NSCLC = tested on: HOP-18 NSCLC
RXF 393 renal = tested on: RXF 393 renal
SK-MEL-2 melanoma = tested on: SK-MEL-2 melanoma
RXF-631 renal = tested on: RXF-631 renal
UACC-257 melanoma = tested on: UACC-257 melanoma
K-562 leukemia = tested on: K-562 leukemia
HT29 colon = tested on: HT29 colon
HCC-2998 colon = tested on: HCC-2998 colon
UACC-62 melanoma = tested on: UACC-62 melanoma
SK-OV-3 ovarian = tested on: SK-OV-3 ovarian
NCI-H23 lung = tested on: NCI-H23 lung
DMS 273 small cell lung = tested on: DMS 273 small cell lung
SR leukemia = tested on: SR leukemia
CAKI-1 renal = tested on: CAKI-1 renal
HCT-116 colon = tested on: HCT-116 colon
HOP-92 NSCLC = tested on: HOP-92 NSCLC
SNB-78 CNS = tested on: SNB-78 CNS

Structure (SMILES): CC(C(=O)c1ccc(Cl)cc1)C1OC(=O)C(Cl)=C1Cl (stereo not given)
- TGI (NCI-H460 lung): > 100 µM
- TGI (MALME-3M melanoma): 41.7 µM
- TGI (CCRF-CEM leukemia): 41.4 µM
- TGI (A549 NSCLC): > 100 µM
- TGI (HCT-15 colon): 50.5 µM
- TGI (SF-539 CNS): 70.9 µM
- TGI (OVCAR-8 ovarian): > 100 µM
- TGI (SF-295 CNS): > 100 µM
- TGI (NCI-H522 lung): 37.7 µM
- TGI (OVCAR-3 ovarian): 71.9 µM
- TGI (IGROV1 ovarian): > 100 µM
- TGI (SNB-75 CNS): > 100 µM
- TGI (SK-MEL-28 melanoma): 57.1 µM
- TGI (OVCAR-5 ovarian): > 100 µM
- TGI (LOX IMVI melanoma): 47.3 µM
- TGI (DLD-1 colon): 49.9 µM
- TGI (LXFL 529 NSCLC): 40.6 µM
- TGI (XF 498 CNS): 84.1 µM
- TGI (EKVX NSCLC): > 100 µM
- TGI (DMS 114 small cell lung): 76.7 µM
- TGI (KM12 colon): > 100 µM
- TGI (HL-60(TB) leukemia): 47.6 µM
- TGI (UO-31 renal): > 100 µM
- TGI (SN12C renal): 56.3 µM
- TGI (COLO 205 colon): 51 µM
- TGI (U251 CNS): > 100 µM
- TGI (NCI-H226 lung): > 100 µM
- TGI (786-0 renal): 36 µM
- TGI (M14 melanoma): > 100 µM
- TGI (TK-10 renal): > 100 µM
- TGI (OVCAR-4 ovarian): 64.6 µM
- TGI (RPMI-8226 leukemia): 70.8 µM
- TGI (SW-620 colon): > 100 µM
- TGI (ACHN renal): > 100 µM
- TGI (MOLT-4 leukemia): 64 µM
- TGI (A498 renal): > 100 µM
- TGI (SF-268 CNS): > 100 µM
- TGI (SNB-19 CNS): > 100 µM
- TGI (M19-MEL melanoma): 52.3 µM
- TGI (KM20L2 colon): > 100 µM
- TGI (HOP-62 NSCLC): > 100 µM
- TGI (SK-MEL-5 melanoma): > 100 µM
- TGI (HOP-18 NSCLC): > 100 µM
- TGI (RXF 393 renal): 35.4 µM
- TGI (SK-MEL-2 melanoma): 48.9 µM
- TGI (RXF-631 renal): > 100 µM
- TGI (UACC-257 melanoma): > 100 µM
- TGI (K-562 leukemia): 58.8 µM
- TGI (HT29 colon): > 100 µM
- TGI (HCC-2998 colon): 63.5 µM
- TGI (UACC-62 melanoma): 46.7 µM
- TGI (SK-OV-3 ovarian): > 100 µM
- TGI (NCI-H23 lung): 71.1 µM

Structure (SMILES): CCCCCC(O)(CCCCC)CCCCCCCCC1=C(O)c2[nH]c(=O)ccc2C(=O)C1=O
- TGI (NCI-H460 lung): 24 µM
- TGI (MALME-3M melanoma): 13.9 µM
- TGI (DMS 273 small cell lung): 12.6 µM
- TGI (CCRF-CEM leukemia): 48.1 µM
- TGI (A549 NSCLC): 26.3 µM
- TGI (HCT-15 colon): 16.3 µM
- TGI (SF-539 CNS): 20.3 µM
- TGI (OVCAR-8 ovarian): 23.1 µM
- TGI (SF-295 CNS): 16.4 µM
- TGI (NCI-H522 lung): 20.8 µM
- TGI (SR leukemia): 96.7 µM
- TGI (OVCAR-3 ovarian): 16.2 µM
- TGI (IGROV1 ovarian): 18.9 µM
- TGI (SNB-75 CNS): 32.3 µM
- TGI (SK-MEL-28 melanoma): 20.7 µM
- TGI (OVCAR-5 ovarian): 35 µM
- TGI (LOX IMVI melanoma): 24 µM
- TGI (DLD-1 colon): 19.7 µM
- TGI (CAKI-1 renal): 32 µM
- TGI (LXFL 529 NSCLC): 15.7 µM
- TGI (XF 498 CNS): 16 µM
- TGI (EKVX NSCLC): 28.8 µM
- TGI (DMS 114 small cell lung): 16.5 µM
- TGI (KM12 colon): 23.6 µM
- TGI (HL-60(TB) leukemia): 23.6 µM
- TGI (UO-31 renal): 26.1 µM
- TGI (SN12C renal): 21 µM
- TGI (COLO 205 colon): 31.9 µM
- TGI (U251 CNS): 16.7 µM
- TGI (HCT-116 colon): 16.4 µM
- TGI (NCI-H226 lung): 28.8 µM
- TGI (786-0 renal): 20.8 µM
- TGI (M14 melanoma): 21.6 µM
- TGI (OVCAR-4 ovarian): 7.06 µM
- TGI (RPMI-8226 leukemia): 25.3 µM
- TGI (SW-620 colon): 20.6 µM
- TGI (ACHN renal): 19.2 µM
- TGI (MOLT-4 leukemia): 55.5 µM
- TGI (A498 renal): 24.6 µM
- TGI (SF-268 CNS): 19.1 µM
- TGI (SNB-19 CNS): 18.2 µM
- TGI (M19-MEL melanoma): 13.8 µM
- TGI (KM20L2 colon): 27.9 µM
- TGI (HOP-62 NSCLC): 24.9 µM
- TGI (SK-MEL-5 melanoma): 12.9 µM
- TGI (RXF 393 renal): 21.4 µM
- TGI (SK-MEL-2 melanoma): 13.9 µM
- TGI (RXF-631 renal): 23.8 µM
- TGI (HOP-92 NSCLC): 28.1 µM
- TGI (UACC-257 melanoma): 14.3 µM
- TGI (K-562 leukemia): 26.7 µM
- TGI (HT29 colon): 30.5 µM
- TGI (HCC-2998 colon): 27.8 µM
- TGI (UACC-62 melanoma): 10.9 µM
- TGI (SK-OV-3 ovarian): 29.6 µM
- TGI (SNB-78 CNS): 57.8 µM
- TGI (NCI-H23 lung): 7.73 µM

Reference: PubChem BioAssay (NCI)
